Test results reported in publication PMC6151560, “Antibacterial and Antitubercular Activities of Cinnamylideneacetophenones” (Molecules : A Journal of Synthetic Chemistry and Natural …, 2017).
Values after ≈ are worked out from the molar mass of the structure shown. Where two headings read alike, the source gives them in different places.

How the values were obtained:
[1] = system: Streptococcus mutans (ATCC 25175); assay: Antibacterial broth microdilution (MIC/MBC), S. mutans; conditions: for MIC: ATCC25175, 24 h; for MBC: ATCC25175, read-out: Sm MBC
[2] = system: Escherichia coli (ATCC 10536); assay: Antibacterial broth microdilution (MIC), E. coli; conditions: ATCC10536, 24 h, read-out: Ec MIC
[3] = DPPH radical scavenging ability; conditions: at 1600, 800, 400, and 200 µM; DPPH 100 μM, 30 min, 25 °C
Source text: The low selectivity of the cinnamylideneacetophenones 3 and 4 can be correlated with their phenolic nature. Studies report the ability of phenolic compounds to act on widespread radical processes shared by eukaryotic and prokaryotic cells. We hypothesized this behavior may be responsible by simultaneous activity toward bacteria and pulmonary cells. Therefore, we evaluated the radical scavenging ability of 3 and 4 using DPPH (2,2-diphenyl-1-picrylhydrazyl) protocol. […] Altogether, low selectivity of 3 and 4 cannot be strongly related to radical processes. Quercetin and gallic acid were used as positive controls due to their phenolic nature and potent radical scavenging ability.
Radical scavenging activity of compounds 3 and 4 was determined using 2,2-diphenyl-1-picrylhydrazyl (DPPH). Aliquots of 10 µL of 3, 4, and positive controls (quercetin and gallic acid) at concentrations 1600, 800, 400, and 200 μM (in EtOH) were individually added in 190 µL DPPH (100 μM). The mixtures were incubated in the dark at 25 °C for 30 min. Remaining DPPH was determined spectroscopically at 490 nm by blanking against absolute ethanol. Radical scavenging ability was expressed by using mean values obtained from triplicates as the percentage of radicals reduced by calculating the following equation: DPPH scavenging % = [1 − (Asample/A) × 100], where A is test absorbance without sample (only EtOH and DPPH) and Asample is test absorbance with compounds.

[4] = system: Staphylococcus aureus (ATCC 14458); assay: Antibacterial broth microdilution (MIC/MBC), S. aureus; conditions: for MIC: ATCC14458, 24 h
[5] = system: MRC-5 (human lung fibroblast cell line, ATCC CCL-171); assay: Cytotoxicity on lung cells (resazurin), MRC-5; conditions: Homo sapiens, MRC5, read-out: IC50 on pulmonary cells
[6] = Cytotoxicity on lung cells (resazurin), MRC-5; conditions: human, MRC-5 cells (lung fibroblast cell line, ATCC CCL-171)
[7] = system: A549 (human lung adenocarcinoma epithelial cell line, ATCC CCL-185); assay: Cytotoxicity on lung cells (resazurin), A549; assay type: cell-based; conditions: 24 h incubation
[8] = system: Mycobacterium tuberculosis H37Rv (ATCC 27294); assay: Antitubercular REMA (Resazurin Microtiter Assay); assay type: cell-based; conditions: Mycobacterium tuberculosis, 168 h, read-out: Mt MIC
[9] = system: Streptococcus sanguinis (ATCC 10557); assay: Antibacterial broth microdilution (MIC/MBC), S. sanguinis; conditions: for MIC: ATCC10557, 24 h; for MBC: ATCC10557, read-out: Ss MBC
[10] = system: Pseudomonas aeruginosa (ATCC 15442); assay: Antibacterial broth microdilution (MIC), P. aeruginosa; conditions: ATCC15442, 24 h, read-out: Pa MIC
[11] = Partition coefficient log Po/w by HPLC-PDA (OECD method); conditions: n-octanol/water (from HPLC retention on a C-18 column)
in vitro = conditions: human
[12] = ATCC14458, read-out: MIC and MBC values

| SMILES | MBC [1] | MIC [2] | percentages of DPPH scavenging ability [3] | MBC [4, 12] | MBC ([4]; ATCC14458, read-out: Sa MBC) | IC50 [5] | IC50 at 24 h [6] | IC50 [7] | MBC [9] | MIC [10] | further results |
| --- | --- | --- | --- | --- | --- | --- | --- | --- | --- | --- | --- |
| O=C(/C=C/C=C/c1ccccc1)c1cccc(O)c1 [Compound 3, (2E,4E)-1-(3-hydroxyphenyl)-5-phenylpenta-2,4-dien-1-one] | 156 µM (≈ 39 µg/mL) | > 500 µM | below 8% | 77.9 to 312 µM (≈ 19.5 to 78.1 µg/mL) | 156 µM (≈ 39 µg/mL) | 46.3 to 96.7 µM | 46.3 µM | 96.7 µM | 156 µM (≈ 39 µg/mL) | > 500 µM | MIC ([1]; read-out: Sm MIC, Streptococcus mutans, broth microdilution, 24 h, tested 3.9 to 500 µM): 77.9 µM (≈ 19.5 µg/mL); MIC ([4]; read-out: Sa MIC, Staphylococcus aureus, broth microdilution, 24 h, tested 3.9 to 500 µM): 77.9 µM (≈ 19.5 µg/mL); MIC ([8]; M. tuberculosis H37Rv, REMA, 7 days, lowest concentration giving 90% inhibition of growth): 88.8 µM (≈ 22.2 µg/mL); MIC ([9]; read-out: Ss MIC, Streptococcus sanguinis, broth microdilution, 24 h, tested 3.9 to 500 µM): 77.9 µM (≈ 19.5 µg/mL); chromatographic logP [11]: 2.7 |
| O=C(/C=C/C=C/c1ccccc1)c1ccc(O)cc1 [Compound 4, (2E,4E)-1-(4-hydroxyphenyl)-5-phenylpenta-2,4-dien-1-one] | 312 µM (≈ 78.1 µg/mL) | > 500 µM | below 8% | 77.9 to 312 µM (≈ 19.5 to 78.1 µg/mL) | 77.9 µM (≈ 19.5 µg/mL) | 46.3 to 96.7 µM | – | 77.5 µM | 312 µM (≈ 78.1 µg/mL) | > 500 µM | chromatographic logP (physchem): 2.6; MIC ([1]; read-out: Sm MIC): 156 µM (≈ 39 µg/mL); IC50 (in vitro): 53.1 µM; MIC ([4]; read-out: Sa MIC): 77.9 µM (≈ 19.5 µg/mL); MIC [8]: 81.9 µM (≈ 20.5 µg/mL); MIC ([9]; read-out: Ss MIC): 156 µM (≈ 39 µg/mL) |
| COc1cccc2c1C(=O)c1c(O)c3c(c(O)c1C2=O)C[C@@](O)(C(=O)CO)C[C@@H]3O[C@H]1C[C@H](N)[C@H](O)[C@H](C)O1 [doxorubicin, reference compound] | – | – | – | – | – | – | 0.7 µM | 1.8 µM | – | – | – |
